Patent US20080175800A1, “USE OF SPECIFIC MENTHYL 3-OXOCARBOXYLIC ACID ESTERS AS PHYSIOLOGICALLY ACTIVE COOLING SUBSTANCES” (SYMRISE GmbH & Co. KG, priority 2007, published 2008)

Experiments:
[1] = Sensory evaluation in confectioner's fondant by a panel of experts (cooling action); type: in vivo; settings: 0.05 wt. % in confectioner's fondant; for cooling action: scale from 1 (no cooling action) to 9 (extremely strong cooling action)
Procedure: The compounds from Examples 1 and 2 were tested for their sensory properties, in particular their cooling action. To this end, they were dissolved, in each case in a specific final concentration, in a mass prepared from sucrose (saccharose) and water (confectioner's fondant, supplier Nordzucker AG, Nordstemmen) and evaluated by a panel of experts. Sensory impressions were rated and the cooling action was assessed on a scale from 1 (no cooling action) to 9 (extremely strong cooling action).

[2] = Skin-cooling characteristics, application site forearm; type: in vivo; settings: forearm of human test subjects; compared with L-menthyl lactate (Frescolat ML)

SMILES	cooling action [1]	skin intensity of cooling [2]	onset and duration of cooling action ([1]; compared with Example 1)
CC(=O)CC(=O)O[C@@H]1C[C@H](C)CC[C@H]1C(C)C [Example 1, (L)-menthyl 3-oxo-butyrate]	5-6	overall weaker intensity of cooling	
CCC(=O)CC(=O)O[C@@H]1C[C@H](C)CC[C@H]1C(C)C [Example 2, (L)-menthyl 3-oxo-pentanoate]	5-6	overall weaker intensity of cooling	slower onset but longer lasting than Example 1
